Like-named read-outs stand apart in the source and are kept apart here.
Key:
Tec(h) activated = Tec(h) activated (Homo sapiens (Human), UniProt P42680); assay: Kinase inhibition assay (KinaseProfiler, 33P-ATP); format: biochemical; settings: read-out: The percentage of the remaining active protein
Miapaca-2 = assay: Cell proliferation inhibition assay (MTT); format: cell-based; settings: Homo sapiens, MIA PaCa-2; Miapaca-2; MTT, 72 hours; read-out: Proliferation inhibitory activity IC50
Procedure: The cells were seeded in 96-well plates with 200 μL of cell suspension per well and incubated overnight in a cell culture medium with a cell concentration of 1 2×10^4 cells/mL. The next day, the supernatant was discarded (the suspension cell was centrifuged before it) and the cells were treated with gradient concentrations of the test compound, respectively. […] After 72 hours, add 20 μL of MTT reagent at a concentration of 5 mg/mL per well. After incubation for 2-4 h, the supernatant was discarded and 150 μL of DMSO was added to each well. […] Relative cell proliferation inhibition rate=([MUT]-[MUT])×100%/[MUT]. The experiment was repeated at least 3 times. Experimental data were expressed as mean, data statistics using t test, P<0.05 for the difference was statistically significant.

EphA8(h) = EphA8(h) (Homo sapiens (Human), UniProt P29322); assay: Kinase inhibition assay (KinaseProfiler, 33P-ATP); format: biochemical; settings: read-out: The percentage of the remaining active protein
MDA-MB-231 = assay: Cell proliferation inhibition assay (MTT); format: cell-based, human; settings: Homo sapiens, MDA-MB-231, MTT, 72 hours
PKCα(h) = PKCα(h) (Homo sapiens (Human), UniProt P17252); assay: Kinase inhibition assay (KinaseProfiler, 33P-ATP); format: biochemical; settings: read-out: The percentage of the remaining active protein
JNK1α1(h) = JNK1α1(h) (Homo sapiens (Human), UniProt P45983); assay: Kinase inhibition assay (KinaseProfiler, 33P-ATP); format: biochemical; settings: read-out: The percentage of the remaining active protein
Itk(h) = Itk(h) (Homo sapiens (Human), UniProt Q08881); assay: Kinase inhibition assay (KinaseProfiler, 33P-ATP); format: biochemical; settings: read-out: The percentage of the remaining active protein
IKKβ = IKKβ (Homo sapiens (Human), UniProt O14920); assay: Kinase inhibition assay (KinaseProfiler, 33P-ATP); format: biochemical; settings: IKKβ(h), read-out: The percentage of the remaining active protein
DDR2 = DDR2 (Homo sapiens (Human), UniProt Q16832); assay: Kinase inhibition assay (KinaseProfiler, 33P-ATP); format: biochemical; settings: for IC50: DDR2, ATP at Km
Chain of DDR2 (Q16832 22-855): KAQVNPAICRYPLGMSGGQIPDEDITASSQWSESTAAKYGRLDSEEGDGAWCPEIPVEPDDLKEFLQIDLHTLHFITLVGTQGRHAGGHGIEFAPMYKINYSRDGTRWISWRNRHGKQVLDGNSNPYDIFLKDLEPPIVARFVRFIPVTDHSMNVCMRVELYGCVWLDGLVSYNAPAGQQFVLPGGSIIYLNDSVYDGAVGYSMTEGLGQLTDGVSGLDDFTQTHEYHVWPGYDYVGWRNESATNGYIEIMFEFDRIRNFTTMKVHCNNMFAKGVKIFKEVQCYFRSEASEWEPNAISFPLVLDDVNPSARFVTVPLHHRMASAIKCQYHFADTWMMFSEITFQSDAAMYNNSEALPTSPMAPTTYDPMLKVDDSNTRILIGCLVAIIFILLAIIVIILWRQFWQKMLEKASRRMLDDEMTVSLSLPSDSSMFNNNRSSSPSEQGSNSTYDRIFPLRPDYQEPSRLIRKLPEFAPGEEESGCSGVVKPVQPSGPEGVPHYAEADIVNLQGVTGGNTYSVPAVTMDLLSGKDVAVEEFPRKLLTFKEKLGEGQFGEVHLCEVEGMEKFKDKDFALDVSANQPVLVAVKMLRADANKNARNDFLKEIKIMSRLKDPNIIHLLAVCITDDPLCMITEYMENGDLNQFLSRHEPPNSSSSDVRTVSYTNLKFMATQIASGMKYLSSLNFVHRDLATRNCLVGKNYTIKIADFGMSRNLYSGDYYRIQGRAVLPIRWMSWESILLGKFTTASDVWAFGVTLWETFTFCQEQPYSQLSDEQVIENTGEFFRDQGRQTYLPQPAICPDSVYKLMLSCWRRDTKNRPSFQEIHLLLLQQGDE

RIPK2(h) = RIPK2(h) (Homo sapiens (Human), UniProt O43353); assay: Kinase inhibition assay (KinaseProfiler, 33P-ATP); format: biochemical; settings: read-out: The percentage of the remaining active protein
Fyn = Fyn (Homo sapiens (Human), UniProt P06241); assay: Kinase inhibition assay (KinaseProfiler, 33P-ATP); format: biochemical; settings: for remaining activity at 10 µM: Fyn(h), read-out: The percentage of the remaining active protein; for IC50: Fyn, ATP at Km
Chain of Fyn (P06241 whole entry): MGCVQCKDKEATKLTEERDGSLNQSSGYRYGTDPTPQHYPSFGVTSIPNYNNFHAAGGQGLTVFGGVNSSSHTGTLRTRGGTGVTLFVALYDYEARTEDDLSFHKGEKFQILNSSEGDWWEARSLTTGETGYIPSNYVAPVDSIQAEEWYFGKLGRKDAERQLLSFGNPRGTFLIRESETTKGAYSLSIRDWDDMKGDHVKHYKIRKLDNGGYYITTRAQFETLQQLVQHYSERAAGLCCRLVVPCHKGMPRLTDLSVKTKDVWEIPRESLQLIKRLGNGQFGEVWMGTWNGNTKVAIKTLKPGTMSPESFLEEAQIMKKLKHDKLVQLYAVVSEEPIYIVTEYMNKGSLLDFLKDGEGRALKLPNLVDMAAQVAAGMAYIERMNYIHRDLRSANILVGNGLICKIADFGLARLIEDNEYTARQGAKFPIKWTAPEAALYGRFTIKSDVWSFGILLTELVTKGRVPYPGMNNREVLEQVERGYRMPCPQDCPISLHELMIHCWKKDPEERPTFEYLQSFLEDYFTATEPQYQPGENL

ALK(h) = ALK(h) (Homo sapiens (Human), UniProt Q9UM73); assay: Kinase inhibition assay (KinaseProfiler, 33P-ATP); format: biochemical; settings: read-out: The percentage of the remaining active protein
PAK1(h) = PAK1(h) (Homo sapiens (Human), UniProt Q13153); assay: Kinase inhibition assay (KinaseProfiler, 33P-ATP); format: biochemical; settings: read-out: The percentage of the remaining active protein
Met(h) = Met(h) (Homo sapiens (Human), UniProt P08581); assay: Kinase inhibition assay (KinaseProfiler, 33P-ATP); format: biochemical; settings: read-out: The percentage of the remaining active protein
[1] = system: breast cancer cell line MDA-MB-231; format: in vivo; settings: nude mice; for tumor growth inhibition / inhibitory effect compared to positive control: MDA-MB-231 subcutaneous tumor; for tumor growth inhibition: 20 mg/kg per day, oral; for inhibitory effect compared to positive control: vs paclitaxel 10 mg/kg per week tail vein, dasatinib 40 mg/kg daily oral
Procedure: When the tumors grew to volumes of 200 mm^3, all the mice were randomized into groups (6 mice for each group) and dosed with indicated compounds.
Observation indexes: mouse body weight and the tumor size were measured once every three days, the tumor volume is calculated (length×width^2×0.5).

EGFR = EGFR (Homo sapiens (Human), UniProt P00533); assay: Kinase inhibition assay (KinaseProfiler, 33P-ATP); format: biochemical; settings: EGFR(h), read-out: The percentage of the remaining active protein
EphB4 = EphB4 (Homo sapiens (Human), UniProt P54760); assay: Kinase inhibition assay (KinaseProfiler, 33P-ATP); format: biochemical
PKBβ(h) = PKBβ(h) (Homo sapiens (Human), UniProt P31751); assay: Kinase inhibition assay (KinaseProfiler, 33P-ATP); format: biochemical; settings: read-out: The percentage of the remaining active protein
IKKα = IKKα (Homo sapiens (Human), UniProt O15111); assay: Kinase inhibition assay (KinaseProfiler, 33P-ATP); format: biochemical; settings: IKKα(h), read-out: The percentage of the remaining active protein
ErbB2 = ErbB2 (Homo sapiens (Human), UniProt P04626); assay: Kinase inhibition assay (KinaseProfiler, 33P-ATP); format: biochemical; settings: for remaining activity at 10 µM: ErbB2(h), read-out: The percentage of the remaining active protein; for IC50: ErbB2, ATP at Km
Chain of ErbB2 (P04626 23-1255): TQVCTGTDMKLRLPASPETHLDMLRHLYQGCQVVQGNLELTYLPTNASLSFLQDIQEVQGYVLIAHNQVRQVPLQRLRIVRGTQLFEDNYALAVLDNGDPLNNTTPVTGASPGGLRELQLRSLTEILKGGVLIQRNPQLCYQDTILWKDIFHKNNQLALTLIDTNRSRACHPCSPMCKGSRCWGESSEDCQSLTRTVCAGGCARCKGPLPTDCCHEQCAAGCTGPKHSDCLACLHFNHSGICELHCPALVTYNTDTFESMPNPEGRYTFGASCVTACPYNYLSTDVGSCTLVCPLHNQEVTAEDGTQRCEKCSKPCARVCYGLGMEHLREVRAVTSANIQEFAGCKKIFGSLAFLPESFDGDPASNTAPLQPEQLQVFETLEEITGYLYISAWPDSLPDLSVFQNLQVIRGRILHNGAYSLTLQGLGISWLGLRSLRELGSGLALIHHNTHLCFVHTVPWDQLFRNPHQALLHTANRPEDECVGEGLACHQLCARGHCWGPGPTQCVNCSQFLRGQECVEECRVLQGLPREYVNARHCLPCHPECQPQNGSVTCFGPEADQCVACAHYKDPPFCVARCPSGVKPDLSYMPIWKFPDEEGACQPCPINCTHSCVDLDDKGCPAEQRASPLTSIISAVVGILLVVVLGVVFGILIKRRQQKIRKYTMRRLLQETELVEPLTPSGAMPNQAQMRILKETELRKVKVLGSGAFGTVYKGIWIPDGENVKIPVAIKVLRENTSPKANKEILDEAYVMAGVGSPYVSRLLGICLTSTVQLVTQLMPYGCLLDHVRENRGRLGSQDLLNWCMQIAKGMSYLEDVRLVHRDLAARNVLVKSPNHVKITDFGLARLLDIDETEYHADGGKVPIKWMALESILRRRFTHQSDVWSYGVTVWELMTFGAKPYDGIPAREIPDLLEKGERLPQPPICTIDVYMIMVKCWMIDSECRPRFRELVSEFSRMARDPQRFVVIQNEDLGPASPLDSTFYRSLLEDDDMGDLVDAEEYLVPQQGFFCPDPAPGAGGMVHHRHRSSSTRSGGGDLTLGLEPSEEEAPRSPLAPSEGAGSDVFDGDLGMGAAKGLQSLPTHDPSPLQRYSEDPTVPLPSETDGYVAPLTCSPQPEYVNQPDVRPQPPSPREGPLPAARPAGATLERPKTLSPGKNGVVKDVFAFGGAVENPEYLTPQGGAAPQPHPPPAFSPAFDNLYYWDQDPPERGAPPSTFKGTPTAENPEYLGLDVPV

c-RAF = c-RAF (Homo sapiens (Human), UniProt P04049); assay: Kinase inhibition assay (KinaseProfiler, 33P-ATP); format: biochemical; settings: for remaining activity at 10 µM: c-RAF(h), read-out: The percentage of the remaining active protein
Chain of c-RAF (P04049 whole entry): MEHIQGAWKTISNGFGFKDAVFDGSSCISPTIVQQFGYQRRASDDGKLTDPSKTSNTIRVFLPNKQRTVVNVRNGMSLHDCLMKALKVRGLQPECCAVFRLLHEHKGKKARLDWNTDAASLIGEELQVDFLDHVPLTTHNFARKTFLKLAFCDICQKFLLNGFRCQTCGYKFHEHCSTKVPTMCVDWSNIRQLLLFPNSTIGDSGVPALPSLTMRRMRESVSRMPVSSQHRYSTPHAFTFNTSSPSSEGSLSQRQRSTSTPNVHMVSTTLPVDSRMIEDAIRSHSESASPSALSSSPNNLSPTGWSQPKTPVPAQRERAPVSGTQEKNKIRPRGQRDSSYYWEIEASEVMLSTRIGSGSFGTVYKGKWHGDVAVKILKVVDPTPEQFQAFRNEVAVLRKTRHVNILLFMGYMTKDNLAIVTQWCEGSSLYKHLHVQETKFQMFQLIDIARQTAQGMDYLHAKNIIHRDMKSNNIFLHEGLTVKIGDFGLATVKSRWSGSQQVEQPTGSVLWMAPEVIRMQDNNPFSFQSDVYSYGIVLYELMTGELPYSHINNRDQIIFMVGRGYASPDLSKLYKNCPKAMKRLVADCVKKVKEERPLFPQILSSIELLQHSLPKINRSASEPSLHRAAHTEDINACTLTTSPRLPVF

GSK3β(h) = GSK3β(h) (Homo sapiens (Human), UniProt P49841); assay: Kinase inhibition assay (KinaseProfiler, 33P-ATP); format: biochemical; settings: read-out: The percentage of the remaining active protein
FAK(h) = FAK(h) (Homo sapiens (Human), UniProt Q05397); assay: Kinase inhibition assay (KinaseProfiler, 33P-ATP); format: biochemical; settings: read-out: The percentage of the remaining active protein
Pim-1(h) = Pim-1(h) (Homo sapiens (Human), UniProt P11309); assay: Kinase inhibition assay (KinaseProfiler, 33P-ATP); format: biochemical; settings: read-out: The percentage of the remaining active protein
Bmx = Bmx (Homo sapiens (Human), UniProt P51813); assay: Kinase inhibition assay (KinaseProfiler, 33P-ATP); settings: for remaining activity at 10 µM: read-out: The percentage of the remaining active protein
Chain of Bmx (P51813 whole entry): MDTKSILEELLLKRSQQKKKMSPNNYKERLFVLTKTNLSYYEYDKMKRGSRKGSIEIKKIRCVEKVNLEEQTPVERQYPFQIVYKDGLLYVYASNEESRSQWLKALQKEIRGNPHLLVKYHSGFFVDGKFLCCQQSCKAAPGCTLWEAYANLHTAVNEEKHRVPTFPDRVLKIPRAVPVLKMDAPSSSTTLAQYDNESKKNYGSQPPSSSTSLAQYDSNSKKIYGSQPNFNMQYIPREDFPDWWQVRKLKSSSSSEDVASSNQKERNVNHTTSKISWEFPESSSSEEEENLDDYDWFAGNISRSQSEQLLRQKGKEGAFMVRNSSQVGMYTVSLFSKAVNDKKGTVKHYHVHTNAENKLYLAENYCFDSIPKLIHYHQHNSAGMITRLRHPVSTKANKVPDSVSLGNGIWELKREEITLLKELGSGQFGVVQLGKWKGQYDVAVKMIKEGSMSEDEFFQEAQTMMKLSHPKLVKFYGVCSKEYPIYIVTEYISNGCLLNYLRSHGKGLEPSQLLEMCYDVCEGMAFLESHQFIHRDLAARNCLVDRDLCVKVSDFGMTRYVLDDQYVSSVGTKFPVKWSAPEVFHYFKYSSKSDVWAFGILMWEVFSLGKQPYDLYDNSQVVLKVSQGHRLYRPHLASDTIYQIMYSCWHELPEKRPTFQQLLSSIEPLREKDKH

TBK1(h) = TBK1(h) (Homo sapiens (Human), UniProt Q9UHD2); assay: Kinase inhibition assay (KinaseProfiler, 33P-ATP); format: biochemical; settings: read-out: The percentage of the remaining active protein
PI3 Kinase a(h) = PI3 Kinase a(h) (Homo sapiens (Human), UniProt P42336); assay: Kinase inhibition assay (KinaseProfiler, 33P-ATP); format: biochemical; settings: read-out: The percentage of the remaining active protein
Yes = Yes (Homo sapiens (Human), UniProt P07947); assay: Kinase inhibition assay (KinaseProfiler, 33P-ATP); format: biochemical; settings: for remaining activity at 10 µM: Yes(h), read-out: The percentage of the remaining active protein; for IC50: Yes, ATP at Km
Chain of Yes (P07947 whole entry): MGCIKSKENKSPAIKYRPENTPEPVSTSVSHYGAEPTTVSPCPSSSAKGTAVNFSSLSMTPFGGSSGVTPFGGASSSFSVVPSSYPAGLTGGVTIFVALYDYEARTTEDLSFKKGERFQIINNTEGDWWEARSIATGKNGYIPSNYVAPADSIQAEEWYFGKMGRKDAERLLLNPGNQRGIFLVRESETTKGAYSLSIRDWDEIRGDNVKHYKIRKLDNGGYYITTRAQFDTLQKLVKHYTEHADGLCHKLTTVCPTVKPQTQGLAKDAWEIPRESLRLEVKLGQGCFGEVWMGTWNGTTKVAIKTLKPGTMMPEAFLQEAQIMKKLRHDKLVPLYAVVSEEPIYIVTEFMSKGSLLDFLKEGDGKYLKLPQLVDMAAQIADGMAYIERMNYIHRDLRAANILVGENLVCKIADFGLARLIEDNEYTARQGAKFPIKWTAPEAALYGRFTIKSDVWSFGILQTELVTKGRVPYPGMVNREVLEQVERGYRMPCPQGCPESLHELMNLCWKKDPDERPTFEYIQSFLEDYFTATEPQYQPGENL

MDA-MB-435 = assay: Cell proliferation inhibition assay (MTT); format: cell-based, human; settings: Homo sapiens, MDA-MB-435, MTT, 72 hours
Procedure: The remaining cell lines were cultured in DMEM complete medium containing 10% fetal bovine serum (MV4-11 cells 20%), 100 U/ml penicillin, 100 μg/mL streptomycin at 5% CO2, and 37° C.
The cells were seeded in 96-well plates with 200 μL of cell suspension per well and incubated overnight in a cell culture medium with a cell concentration of 1˜2×10^4 cells/mL. The next day, the supernatant was discarded (the suspension cell was centrifuged before it) and the cells were treated with gradient concentrations of the test compound, respectively. At the same time, the drug-free negative control group and the equal volume of solvent control group, DMSO concentration of 0.1%, each dose group set up three wells, 37° C., 5% CO2 conditions. After 72 hours, add 20 μL of MTT reagent at a concentration of 5 mg/mL per well. After incubation for 2-4 h, the supernatant was discarded and 150 μL of DMSO was added to each well. […] Determine the absorbance (A) value (λ=570 nm, A value is proportional to the number of living cells), whichever is the average. […] The experiment was repeated at least 3 times. Experimental data were expressed as mean, data statistics using t test, P<0.05 for the difference was statistically significant. The inhibitory effects of the following compounds on cell proliferation were expressed as IC50 or inhibition rates.

ARK5(h) = ARK5(h) (Homo sapiens (Human), UniProt O60285); assay: Kinase inhibition assay (KinaseProfiler, 33P-ATP); format: biochemical; settings: read-out: The percentage of the remaining active protein
EphA2 = EphA2 (Homo sapiens (Human), UniProt P29317); assay: Kinase inhibition assay (KinaseProfiler, 33P-ATP)
CHK1(h) = CHK1(h) (Homo sapiens (Human), UniProt O14757); assay: Kinase inhibition assay (KinaseProfiler, 33P-ATP); format: biochemical; settings: read-out: The percentage of the remaining active protein
Chain of CHK1(h) (O14757 whole entry): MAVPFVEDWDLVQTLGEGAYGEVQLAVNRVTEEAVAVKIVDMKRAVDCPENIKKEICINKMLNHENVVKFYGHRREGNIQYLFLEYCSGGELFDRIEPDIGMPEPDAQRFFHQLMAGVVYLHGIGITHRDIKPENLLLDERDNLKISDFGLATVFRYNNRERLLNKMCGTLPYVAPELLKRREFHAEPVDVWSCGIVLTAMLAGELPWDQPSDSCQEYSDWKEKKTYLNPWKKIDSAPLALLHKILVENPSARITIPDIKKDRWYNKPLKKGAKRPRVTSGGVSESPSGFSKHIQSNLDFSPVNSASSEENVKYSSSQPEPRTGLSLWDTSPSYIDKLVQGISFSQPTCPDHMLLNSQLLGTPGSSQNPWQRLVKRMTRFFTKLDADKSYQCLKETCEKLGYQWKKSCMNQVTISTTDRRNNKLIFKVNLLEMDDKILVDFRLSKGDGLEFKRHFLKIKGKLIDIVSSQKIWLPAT

[2] = read-out: Proliferation inhibitory activity IC50
[3] = read-out: Proliferative inhibitory activity MDA-MB-231 (IC50 class)
[4] = read-out: Proliferative inhibitory activity MDA-MB-435 (IC50 class)

## Cc1ccc(NC(=O)c2cccc(C(F)(F)F)c2)cc1C#Cc1nn(C2CCN(C)CC2)c2ncnc(N)c12 [Compound 31]
Tec(h) activated; compound at 10 μM
  remaining activity at 10 µM: 13%
Miapaca-2
  IC50: 0.0404 µM
EphA8(h); compound at 10 μM
  remaining activity at 10 µM: -4%
MDA-MB-231; [2]
  IC50: 0.0153 µM
MDA-MB-231; [3]
  IC50: < 0.1 µM
PKCα(h); compound at 10 μM
  remaining activity at 10 µM: 92%
JNK1α1(h); compound at 10 μM
  remaining activity at 10 µM: 36%
Itk(h); compound at 10 μM
  remaining activity at 10 µM: 92%
IKKβ; compound at 10 μM
  remaining activity at 10 µM: 42%
DDR2
  IC50: 0.074 µM
RIPK2(h); compound at 10 μM
  remaining activity at 10 µM: 15%
Fyn; compound at 10 μM
  remaining activity at 10 µM: -1%
Fyn
  IC50: 0.003 µM
ALK(h); compound at 10 μM
  remaining activity at 10 µM: 33%
PAK1(h); compound at 10 μM
  remaining activity at 10 µM: 36%
Met(h); compound at 10 μM
  remaining activity at 10 µM: 102%
[1]
  tumor growth inhibition: significantly inhibit tumor growth
  inhibitory effect compared to positive control: superior inhibitory effect compared to positive control (paclitaxel and dasatinib)
[1]; test dose range, daily oral
  toxicity / side effects (weight loss, rash, diarrhea) during administration: low toxicity
EGFR; compound at 10 μM
  remaining activity at 10 µM: 15%
EphB4; EphB4, ATP at Km
  IC50: 0.011 µM
PKBβ(h); compound at 10 μM
  remaining activity at 10 µM: 14%
IKKα; compound at 10 μM
  remaining activity at 10 µM: 14%
ErbB2; compound at 10 μM
  remaining activity at 10 µM: 2%
ErbB2
  IC50: 0.251 µM
c-RAF; compound at 10 μM
  remaining activity at 10 µM: 2%
c-RAF; c-RAF, ATP at Km
  IC50: 0.019 µM
GSK3β(h); compound at 10 μM
  remaining activity at 10 µM: 99%
FAK(h); compound at 10 μM
  remaining activity at 10 µM: 26%
Pim-1(h); compound at 10 μM
  remaining activity at 10 µM: 34%
Bmx
  IC50: 0.018 µM
  remaining activity at 10 µM: 0%
TBK1(h); compound at 10 μM
  remaining activity at 10 µM: 83%
PI3 Kinase a(h); PI3 Kinase a(h), compound at 10 μM
  remaining activity at 10 µM: 98%
Yes; compound at 10 μM
  remaining activity at 10 µM: 0%
Yes
  IC50: < 0.001 µM
MDA-MB-435; [2]
  IC50: 0.0147 µM
MDA-MB-435; [4]
  IC50: < 0.1 µM
ARK5(h); compound at 10 μM
  remaining activity at 10 µM: 115%
EphA2
  IC50: 0.018 µM
CHK1(h); compound at 10 μM
  remaining activity at 10 µM: 100%

## Cc1ccc(NC(=O)c2ccc(C)c(C(F)(F)F)c2)cc1C#Cc1nn([C@H]2CC[C@H](O)CC2)c2ncnc(N)c12 [Compound 93]
Tec(h) activated; 10 μM
  remaining activity at 10 µM: 24%
Miapaca-2
  IC50: < 0.6 µM
EphA8(h); 10 μM
  remaining activity at 10 µM: 2%
MDA-MB-231; [2]
  IC50: 0.03 µM
MDA-MB-231; [3]
  IC50: < 0.1 µM
PKCα(h); 10 μM
  remaining activity at 10 µM: 110%
JNK1α1(h); 10 μM
  remaining activity at 10 µM: 35%
Itk(h); 10 μM
  remaining activity at 10 µM: 102%
IKKβ; 10 μM
  remaining activity at 10 µM: 33%
DDR2; DDR2(h), 10 μM, read-out: The percentage of the remaining active protein
  remaining activity at 10 µM: 16%
DDR2
  IC50: 0.065 µM
RIPK2(h); 10 μM
  remaining activity at 10 µM: 21%
Fyn; 10 μM
  remaining activity at 10 µM: 0%
Fyn
  IC50: 0.006 µM
ALK(h); 10 μM
  remaining activity at 10 µM: 92%
PAK1(h); 10 μM
  remaining activity at 10 µM: 87%
Met(h); 10 μM
  remaining activity at 10 µM: 133%
[1]
  tumor growth inhibition: significantly inhibit tumor growth
  inhibitory effect compared to positive control: superior inhibitory effect compared to the positive control (paclitaxel)
EGFR; 10 μM
  remaining activity at 10 µM: 11%
EphB4; EphB4(h), 10 μM, read-out: The percentage of the remaining active protein
  remaining activity at 10 µM: 1%
PKBβ(h); 10 μM
  remaining activity at 10 µM: 127%
IKKα; 10 μM
  remaining activity at 10 µM: 7%
ErbB2; 10 μM
  remaining activity at 10 µM: 4%
ErbB2
  IC50: 0.165 µM
c-RAF; 10 μM
  remaining activity at 10 µM: 24%
GSK3β(h); 10 μM
  remaining activity at 10 µM: 26%
FAK(h); 10 μM
  remaining activity at 10 µM: 45%
Pim-1(h); 10 μM
  remaining activity at 10 µM: 99%
Bmx; Bmx, ATP at Km
  IC50: 0.021 µM
Bmx
  remaining activity at 10 µM: -1%
TBK1(h); 10 μM
  remaining activity at 10 µM: 104%
PI3 Kinase a(h); PI3 Kinase (p110a/p85a)(h), 10 μM
  remaining activity at 10 µM: 79%
Yes; 10 μM
  remaining activity at 10 µM: 0%
Yes
  IC50: 0.001 µM
MDA-MB-435; [4]
  IC50: < 0.1 µM
ARK5(h); 10 μM
  remaining activity at 10 µM: 108%
EphA2; read-out: The percentage of the remaining active protein
  remaining activity at 10 µM: -3%
CHK1(h); 10 μM
  remaining activity at 10 µM: 114%

From US10266537B2, “3-acetylenyl-pyrazole-pyrimidine derivative, and preparation method therefor and uses thereof” (Si Chuan University, priority 2015, dated 2019)
